Laboratory results reported in patent publication US12624068B2, “Exon skipping by peptide nucleic acid derivatives” (OliPass Corporation, priority 2016, dated 2026).
{Fethoc} = N-terminal Fethoc capping group (publication's abbreviation); [C(1O2)] = modified PNA monomer acting as cytosine, C(pOq) type, 1O2; [A(5)] = modified PNA monomer acting as adenine, A(p) with p=5; [G(5)] = modified PNA monomer acting as guanine, G(p) type, p=5; [G(6)] = modified PNA monomer acting as guanine, G(p) with p=6; {NH2} = C-terminal unsubstituted amide (-NH2); [C(12)] = modified PNA cytosine monomer

Legend:
human IDO1 pre-mRNA = experiment: IDO1 nested PCR for exon skipping in SKOV3 cells; assay type: cell-based; conditions: 48 hours
Experimental: “IDO-ASO 1” was evaluated for its ability to induce exon skipping in SKOV3 cells (Cat. Number HTB-77, ATCC) by IDO1 nested PCR as follows. [Cell Culture & ASO Treatment] SKOV3 (human ovary adenocarcinoma) cells were subcultured in 60 mm culture dish containing 5 mL McCoy's 5A modified medium supplemented with 10% FBS, 1% streptomycin/penicillin, 1% L-glutamine, and 1% sodium pyruvate under 5% CO2 at 37° C., and treated with “IDO-ASO 1” for 48 hours at 0 zM (negative control), 10 zM, 100 zM or 1 aM. [RNA Extraction & cDNA Synthesis by One-Step RT-PCR] Total RNA was extracted from the cells using “Universal RNA Extraction Kit” (Cat. Number 9767, Takara) according to the manufacturer's instructions. […] NO: 114); and IDO-exon 10_reverse: (5'→3') […] [Nested PCR Amplification] 1 μL of cDNA was further amplified in a 20 μL nested PCR reaction (Cat. No. K2612, Bioneer) against a set of exon-specific primers [IDO-exon 4_forward: (5'→3') […] NO: 116); and IDO-exon 9_reverse: (5'→3') […] [Identification of Exon Skipping Product] The PCR products were subjected to electrophoretic separation on a 2% agarose gel. The bands of target size were collected and analyzed by Sanger sequencing. […] [ASO Treatment] SKOV3 cells grown in 60 mm culture dish were treated with “IDO-ASO 5” at 0 (negative control), 1, 3, 10, 30 or 100 aM for 48 hours. [cDNA Synthesis by One-step PCR] […] NO: 119); and IDO-exon 8_reverse: (5'→3') […] [Nested PCR Amplification] 1 μL of cDNA was further amplified in a 20 μL nested PCR (Cat. No. K2612, Bioneer) reaction using a set of exon-specific primers [IDO-exon 1n_forward: (5'→3') […] NO: 121); and IDO-exon 8n_reverse: (5'→3') […] “IDO-ASO 6” was evaluated for its ability to induce exon skipping in SKOV3 cells by IDO1 nested PCR as described in “IDO1 Example 3” unless noted otherwise.

B16F10 melanoma = experiment: Antitumor activity against B16F10 melanoma in C57BL/6 mice; assay type: in vivo
Experimental: “PD-ASO 2” was evaluated for its antitumor activity in male C57BL/6 mice (4 weeks old) injected with B16F10 melanoma cells as provided below.
[Inoculation of B16F10 Melanoma Cells] B16F10 mouse melanoma cells (Cat. Number CRL-6475, ATCC) were maintained in 150 mm culture dish containing DMEM supplemented with 10% FBS, 1% streptomycin/penicillin, and 0.01 mg/ml bovine insulin. In Day 0, ca 1×10^5 B16F10 cells dissolved in 50 μL PBS were injected to each animal at the right rear flank.
[Grouping & ASO Treatment] In Day 3, the animals were randomly assigned by weight to 4 groups of 0 (negative control), 2, 10 and 50 pmole/Kg “PD-ASO 2”. (N=15 per group)
Injection solutions were prepared by serially diluting an aqueous mother stock solution of “PD-ASO 2” in PBS to 0 nM (PBS only), 0.4 nM, 2 nM and […] “PD-ASO 2” for the negative control, 2, 10 and 50 pmole/Kg “PD-ASO 2” group, respectively.
The animals were subcutaneously administered with an injection solution at 5 mL/Kg, 2× per week during Day 3 to Day 17.
[Anti-tumor Activity] The anti-tumor activity was assessed by changes in the tumor volume between each ASO treatment group and the negative control group.

[1] = test system: rats with diabetes-induced peripheral neuropathic pain (DPNP); experiment: Reversal of allodynia (von Frey) in rats with diabetes-induced peripheral neuropathic pain; assay type: in vivo, rat; conditions: 100 pmole/Kg subcutaneous in Days 11, 13, 15, 17 and 19
Experimental: “SCN-ASO 7”, “SCN-ASO 8”, “SCN-ASO 21”, “SCN-ASO 35”, “SCN-ASO 36” and “SCN-ASO 37” were evaluated for their ability to reverse the allodynia in rats with diabetes-induced peripheral neuropathic pain (DPNP). In this example, the six SCN9A ASOs targeting a total of five splice sites were evaluated for their ability to reverse the allodynia induced by diabetic neuropathy in rats.
[Induction of DPNP and Grouping] Diabetes was induced in rats by an intraperitoneal injection of streptozotocin at 60 mg/Kg in Day 0. In Day 10, rats with DPNP were randomly assigned to […] of negative control (vehicle only), “SCN-ASO 7” 100 pmole/Kg, “SCN-ASO 8” 100 pmole/Kg, “SCN-ASO 21” 100 pmole/Kg, “SCN-ASO 35” 100 pmole/Kg, “SCN-ASO 36” 100 pmole/Kg, and “SCN-ASO 37” 100 pmole/Kg. The animals were grouped based on the von Frey scores of individual animals in Day 10. (N=8-9 per group) Allodynia was scored using a set of microfilaments (Touch Test®) according to the “Up & Down” method. [J Neurosci. Methods vol 53(1), 55-63 (1994)]
[ASO Treatment and von Frey Scoring] ASO solutions for injection were prepared by serially diluting aqueous mother stock solutions of the SCN9A ASOs to 100 nM in PBS (phosphate buffered saline). Animals were subcutaneously administered with ASO at 1 mL/Kg in Days 11, 13, 15, 17 and 19. Von Frey scoring was carried out 2 hours post dose in Days 11, 13, 15, 17 and 19. Von Frey scoring was additionally performed in Days 21 and 23 in order to assess the duration of the therapeutic activity after the final dosing. Daily von Frey scores were evaluated for statistical significance by student's t-test against the negative control group (vehicle only, i.e., PBS).

[2] = 2 pmole/Kg subcutaneous, 2× per week Day 3 to Day 17

Question: “Fethoc-CA(5)A-A(5)CC(1O2)-TTA(5)-CGG(6)-A-NH2 (CAAACCTTACGGA; splice-switching; all peptide nucleic acid (PNA), [A(5)] at 2, 4, 9, [C(1O2)] at 6, [G(6)] at 12, 5' {Fethoc}, 3' {NH2}; peptide nucleic acid backbone) [IDO-ASO 5]” was tested. Which “IDO1 exon skipping by nested PCR” value (human IDO1 pre-mRNA; 30 and 100 aM) did it give?
Answer: clearly yielded the mRNA splice variants lacking exons 2-4 and exons 2-6

Question: For “Fethoc-CC(1O2)T-CA(5)C-CTG(5)-TTA(5)-C(1O2)CA(5)-C-NH2 (CCTCACCTGTTACCAC; splice-switching; all peptide nucleic acid (PNA), [C(1O2)] at 2, 13, [A(5)] at 5, 12, 15, [G(5)] at 9, 5' {Fethoc}, 3' {NH2}; peptide nucleic acid backbone) [PD-ASO 2]”, which “average tumor weight in Day 19” value (B16F10 melanoma; 2 pmole/Kg) is on record?
Answer: ~0.35 g

Question: What about the “inhibition of tumor growth by weight in Day 19” value (B16F10 melanoma; 2 pmole/Kg) of the same substance?
Answer: ~70%

Question: What about the “inhibition of tumor growth (tumor volume) in Day 19” value (B16F10 melanoma; [2]) of the same substance?
Answer: ~55%

Question: And the “tumor volume in Day 19” value (B16F10 melanoma; [2])?
Answer: ~375 mm^3

Question: What about the “antitumor activity (tumor volume)” value (B16F10 melanoma; 10 pmole/Kg, whole period) of the same substance?
Answer: marginal without significance

Question: And the “antitumor activity (tumor volume)” value (B16F10 melanoma; 50 pmole/Kg, Day 10 to Day 17)?
Answer: comparable to that of the 2 pmole/Kg group

Question: What about the “antitumor activity (tumor volume)” value (B16F10 melanoma; 50 pmole/Kg, Day 19) of the same substance?
Answer: disappeared in Day 19

Question: With “Fethoc-GA(5)T-A(5)TG-A(5)GT-G(6)CA(5)-C(1O2)TA(5)-A-NH2 (GATATGAGTGCACTAA; splice-switching; all peptide nucleic acid (PNA), [A(5)] at 2, 4, 7, 12, 15, [G(6)] at 10, [C(1O2)] at 13, 5' {Fethoc}, 3' {NH2}; peptide nucleic acid backbone) [SCN-ASO 35]” as the substance, how does the “maximum therapeutic efficacy based on the von Frey scores in Day 19” value (“maximum therapeutic efficacy based” below) [1] read?
Answer: 52%

Question: For “Fethoc-TA(5)A-A(5)AG(6)-TG(6)T-A(5)CC(1O2)-TA(5)A-A(5)-NH2 (TAAAAGTGTACCTAAA; splice-switching; all peptide nucleic acid (PNA), [A(5)] at 2, 4, 10, 14, 16, [G(6)] at 6, 8, [C(1O2)] at 12, 5' {Fethoc}, 3' {NH2}; peptide nucleic acid backbone) [SCN-ASO 21]”, which “maximum therapeutic efficacy based” value [1] is on record?
Answer: 93%

Question: “Fethoc-GG(6)C-AA(5)G-A(5)CC(1O2)-TGA(5)-T-NH2 (GGCAAGACCTGAT; splice-switching; all peptide nucleic acid (PNA), [G(6)] at 2, [A(5)] at 5, 7, 12, [C(1O2)] at 9, 5' {Fethoc}, 3' {NH2}; peptide nucleic acid backbone) [IDO-ASO 6]” was tested. Which “IDO1 exon skipping by nested PCR” value (human IDO1 pre-mRNA; 1 to 30 aM) did it give?
Answer: clearly yielded a single mRNA splice variant lacking exons 2-5

Question: And the “IDO1 exon skipping by nested PCR” value (human IDO1 pre-mRNA; 100 aM)?
Answer: the exon skipping band was not detected

Question: For “Fethoc-A(5)TA(5)-CC(1O2)C-TG(6)A-A(5)TC-TG(6)T-NH2 (ATACCCTGAATCTGT; splice-switching; all peptide nucleic acid (PNA), [A(5)] at 1, 3, 10, [C(1O2)] at 5, [G(6)] at 8, 14, 5' {Fethoc}, 3' {NH2}; peptide nucleic acid backbone) [SCN-ASO 36]”, which “maximum therapeutic efficacy based” value [1] is on record?
Answer: 0%

Question: For “Fethoc-AA(5)G-A(5)C(12)T-CG(6)G-A(5)GC(1O2)-TA(5)-NH2 (AAGACTCGGAGCTA; all peptide nucleic acid (PNA), [A(5)] at 2, 4, 10, 14, [C(12)] at 5, [G(6)] at 8, [C(1O2)] at 12, 5' {Fethoc}, 3' {NH2}) [SCN-ASO 37]”, which “maximum therapeutic efficacy based” value [1] is on record?
Answer: 22%
